In US9656971B2, “COMT inhibitors” (Hoffmann-La Roche Inc., priority 2012, dated 2017) one finds IC50 data, which are given here for 33 compounds.

For the assay, the target named is T1, Rec. human COMT (Homo sapiens, UniProt P21964).
T1 sequence (P21964 1-271): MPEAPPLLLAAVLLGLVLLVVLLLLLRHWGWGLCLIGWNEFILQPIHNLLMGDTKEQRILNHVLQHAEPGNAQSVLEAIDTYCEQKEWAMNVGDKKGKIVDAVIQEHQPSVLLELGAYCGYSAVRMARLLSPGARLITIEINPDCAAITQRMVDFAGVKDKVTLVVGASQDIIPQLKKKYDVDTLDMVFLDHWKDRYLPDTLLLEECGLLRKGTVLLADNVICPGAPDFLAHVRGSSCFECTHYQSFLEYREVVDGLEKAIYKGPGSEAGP
The experiment in a line: COMT-Fluorescence Assay. The assay is classed as biochemical. The settings on record: rec. human COMT 25 nM, 4-Nitrocatechol-Alexa488 200 nM, SAM 500 nM. As to the method: This intramolecular interaction is disturbed if the 4-Nitrocatechol is methylated. […] This increase of fluorescence intensity can be followed in a kinetic measurement. The slope in the linear range of the kinetic is calculated. An inhibitor compound decreases the slope.
Signal [rfu/min]=(rfu(end-point)−rfu(startpoint))/incubation_time_#2

The mark [1] stands for this setting: COMT-fluorescence assay, read-out: IC50.

Counter-ions that a name gives are not always drawn. Like-named read-outs stand apart in the source and are kept apart here.

The term IC50 denotes the midpoint of a concentration-inhibition curve. As to `Cc1nc(C)c(-c2cc(O)c3nc[nH]c(=O)c3c2)s1` [Example 178, 6-(2,4-Dimethylthiazol-5-yl)-8-hydroxyquinazolin-4(3H)-one], the IC50 under setting [1] was 10 nM.

Turning to `Cn1ccnc1-c1cc(O)c2nc[nH]c(=O)c2c1` [Example 73, 8-Hydroxy-6-(1-methyl-1H-imidazol-2-yl)quinazolin-4(3H)-one], under setting [1], the concentration for half-maximal inhibition (IC50) was determined as 40 nM.

As for `N#Cc1ccc(-c2c(-c3ccc(F)cc3)cc(O)c3nc[nH]c(=O)c23)cc1` [Example 64, 4-[6-(4-Fluoro-phenyl)-8-hydroxy-4-oxo-3,4-dihydro-quinazolin-5-yl]-benzonitrile], the IC50 under setting [1] is 10 nM.

Turning to `O=c1[nH]cnc2c(O)ccc(F)c12` [Example 197, 5-Fluoro-8-hydroxyquinazolin-4(3H)-one], the half-inhibitory concentration (IC50) under setting [1] turned out to be 2530 nM.

`COCc1cccc(-c2cc(O)c3nc[nH]c(=O)c3c2)c1` [Example 71, 8-Hydroxy-6-(3-(methoxymethyl)phenyl)quinazolin-4(3H)-one] yielded an IC50 (IC50, COMT-fluorescence assay) of 20 nM.

In turn, `O=c1[nH]cnc2c(O)cc(-c3ccccc3N3CCOCC3)cc12` [Example 224, 8-Hydroxy-6-(2-morpholinophenyl)quinazolin-4(3H)-one] gave a 50% inhibitory concentration (IC50) (IC50, COMT-fluorescence assay) of 220 nM.

For the setting “IC50, COMT-fluorescence assay”, `CCc1cc(O)c2nc[nH]c(=O)c2c1` [Example 10, 6-Ethyl-8-hydroxyquinazolin-4(3H)-one 2,2,2-trifluoroacetate] yielded an IC50 of 1090 nM.

As for `COC(=O)c1cc(C)c(-c2cc(O)c3nc[nH]c(=O)c3c2)s1` [Example 81, Methyl 5-(8-hydroxy-4-oxo-3,4-dihydroquinazolin-6-yl)-4-methylthiophene-2-carboxylate], under setting [1], the IC50 was 10 nM.

In the case of `O=C(c1ccccc1)c1ccccc1-c1cc(O)c2nc[nH]c(=O)c2c1` [Example 99, 6-(2-Benzoylphenyl)-8-hydroxyquinazolin-4(3H)-one], under setting [1], the IC50 was 100 nM.

As to `CS(=O)(=O)c1ccc(-c2c(-c3ccc(F)cc3)cc(O)c3nc[nH]c(=O)c23)cc1` [Example 57, 6-(4-Fluorophenyl)-8-hydroxy-5-(4-(methylsulfonyl)phenyl)quinazolin-4(3H)-one], the IC50 under setting [1] is 10 nM.

For the compound `Cc1ccc(C(=O)c2cc(O)c3nc[nH]c(=O)c3c2)s1` [Example 94, 8-Hydroxy-6-(5-methylthiophene-2-carbonyl)quinazolin-4(3H)-one], under setting [1], the IC50 is 90 nM.

As to `N#Cc1ccccc1-c1cc(O)c2nc[nH]c(=O)c2c1` [Example 207, 2-(8-Hydroxy-4-oxo-3,4-dihydroquinazolin-6-yl)benzonitrile], under setting [1], the IC50 worked out at 20 nM.

Consider `Cn1ncc2c(-c3cc(O)c4nc[nH]c(=O)c4c3)cccc21` [Example 156, 8-Hydroxy-6-(1-methyl-1H-indazol-4-yl)quinazolin-4(3H)-one], for which the IC50 under setting [1] turned out to be 10 nM.

In the case of `Cn1cnc(-c2cc(O)c3nc[nH]c(=O)c3c2)c1` [Example 75, 8-Hydroxy-6-(1-methyl-1H-imidazol-4-yl)quinazolin-4(3H)-one], the IC50 under setting [1] was determined as 510 nM.

The compound `O=c1[nH]cnc2c(O)cc(-c3ccc4c(c3)CNCC4)cc12` [Example 174, 8-Hydroxy-6-(1,2,3,4-tetrahydroisoquinolin-7-yl)quinazolin-4(3H)-one] returned a 50% inhibitory concentration (IC50) (IC50, COMT-fluorescence assay) of 70 nM.

On to `O=c1[nH]cnc2c(O)cc(-c3ccnc(N4CCNCC4)c3)cc12` [Example 185, 8-Hydroxy-6-(2-(piperazin-1-yl)pyridin-4-yl)quinazolin-4(3H)-one], for which, under setting [1], the IC50 was 20 nM.

On to `CC(C)N(Cc1ccccc1-c1cc(O)c2nc[nH]c(=O)c2c1)C(C)C` [Example 218, 6-(2-((Diisopropylamino)methyl)phenyl)-8-hydroxyquinazolin-4(3H)-one], for which the IC50 under setting [1] amounted to 1400 nM.

On to `Cc1cc(-c2cc(O)c3nc[nH]c(=O)c3c2)ccn1` [Example 134, 8-Hydroxy-6-(2-methylpyridin-4-yl)quinazolin-4(3H)-one], for which, under setting [1], the IC50 worked out at 10 nM.

On to `COCc1cc(C(=O)N(CCN(C(C)C)C(C)C)C(C)C)ccc1-c1cc(O)c2nc[nH]c(=O)c2c1` [Example 106, N-(2-(Diisopropylamino)ethyl)-4-(8-hydroxy-4-oxo-3,4-dihydroquinazolin-6-yl)-N-isopropyl-3-(methoxymethyl)benzamide 2,2,2-trifluoroacetate], for which the 50% inhibitory concentration (IC50) under setting [1] stood at 20 nM.

In the case of `O=c1[nH]cnc2c(O)cc(-c3ccccc3S(=O)(=O)N3CCCCC3)cc12` [Example 251, 8-Hydroxy-6-[2-(piperidine-1-sulfonyl)-phenyl]-3H-quinazolin-4-one], under setting [1], the IC50 was 740 nM.

Compound `O=c1[nH]cnc2c(O)cc(-c3ccc(N4CCOCC4)cc3)cc12` [Example 142, 8-Hydroxy-6-(4-morpholin-4-yl-phenyl)-3H-quinazolin-4-one] yielded an IC50 (IC50, COMT-fluorescence assay) of 10 nM.

With `O=c1[nH]cnc2c(O)cc(-c3cccc(N4CCOCC4)c3)cc12` [Example 146, 8-Hydroxy-6-(3-morpholinophenyl)quinazolin-4(3H)-one], the IC50 (IC50, COMT-fluorescence assay) was 20 nM.

In the case of `O=c1[nH]cnc2c(O)cc(-c3ccc(F)cc3)c(-c3ccncc3)c12` [Example 56, 6-(4-Fluorophenyl)-8-hydroxy-5-(pyridin-4-yl)quinazolin-4(3H)-one], the IC50 under setting [1] worked out at 10 nM.

For the compound `Cn1ncc2cc(-c3cc(O)c4nc[nH]c(=O)c4c3)ccc21` [Example 96, 8-Hydroxy-6-(1-methyl-1H-indazol-5-yl)quinazolin-4(3H)-one], the IC50 under setting [1] came out at 30 nM.

On to `O=c1[nH]cnc2c(O)cc(-c3cscn3)cc12` [Example 91, 8-Hydroxy-6-(thiazol-4-yl)quinazolin-4(3H)-one], for which the concentration for half-maximal inhibition (IC50) under setting [1] amounted to 100 nM.

Turning to `O=C(c1ccc(-c2cc(O)c3nc[nH]c(=O)c3c2)cc1)N1CCC(F)(F)CC1` [Example 200, 6-[4-(4,4-Difluoro-piperidine-1-carbonyl)-phenyl]-8-hydroxy-3H-quinazolin-4-one], the IC50 under setting [1] turned out to be 10 nM.

For the compound `COCc1cc(CN2CCN(C(C)C)CC2)ccc1-c1cc(O)c2nc[nH]c(=O)c2c1` [Example 107, 8-Hydroxy-6-(4-((4-isopropylpiperazin-1-yl)methyl)-2-(methoxymethyl)phenyl)quinazolin-4(3H)-one tetrakis(2,2,2-trifluoroacetate)], the IC50 under setting [1] was 20 nM.

As to `CN1CCN(C(=O)c2cc(-c3cc(O)c4nc[nH]c(=O)c4c3)n(C)n2)CC1` [Example 230, 8-Hydroxy-6-(1-methyl-3-(4-methylpiperazine-1-carbonyl)-1H-pyrazol-5-yl)quinazolin-4(3H)-one formate], the IC50 under setting [1] was 20 nM.

Consider `CCCS(=O)(=O)c1ccccc1-c1cc(O)c2nc[nH]c(=O)c2c1` [Example 249, 8-Hydroxy-6-(2-(propylsulfonyl)phenyl)quinazolin-4(3H)-one], for which the IC50 under setting [1] amounted to 3230 nM.

Under “IC50, COMT-fluorescence assay”, `CS(=O)(=O)c1ccccc1-c1cc(O)c2nc[nH]c(=O)c2c1` [Example 212, 8-Hydroxy-6-(2-(methylsulfonyl)phenyl)quinazolin-4(3H)-one] gave an IC50 of 870 nM.

With `Cc1onc(-c2ccccc2)c1-c1cc(O)c2nc[nH]c(=O)c2c1` [Example 76, 8-Hydroxy-6-(5-methyl-3-phenylisoxazol-4-yl)quinazolin-4(3H)-one], the IC50 under setting [1] is 4600 nM.

As for `COc1ccccc1-c1cc(O)c2nc[nH]c(=O)c2c1` [Example 161, 8-Hydroxy-6-(2-methoxyphenyl)quinazolin-4(3H)-one], the IC50 under setting [1] came to 50 nM.

With `O=c1[nH]cnc2c(O)cc(-c3ccc(Cl)cc3)cc12` [Example 131, 6-(4-Chlorophenyl)-8-hydroxyquinazolin-4(3H)-one], the IC50 (IC50, COMT-fluorescence assay) worked out at 40 nM.
